Data on 27 compounds can be found in patent US8778966B2, “Quinolinone derivatives as PARP and tank inhibitors” (Janssen Pharmaceutica, NV, priority 2007, dated 2014).

The subject of one experiment is PC-3 cells. The experiment can be described thus: Antiproliferative activity, Alamar Blue assay, PC-3 cells. The experiment is classed as cell-based, human. As to conditions: for IC50: Homo sapiens, PC-3, PC3 cells, read-out: PC3 antiproliferative activity pIC50 (converted). Put shortly:
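Resazurin-based fluorescence (540 nm ex/590 nm em) measured after 4-day compound treatment plus 24 hrs dye incubation at 37° C. Cells plated at 4.5×10^3 cells/ml, adhered 24 hr first. pIC50 from probit-derived IC50 on % viable cells versus untreated, triplicate wells.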

In a further experiment the test system is PC3 cells. Put plainly: EB1 Comet (microtubule disruption) assay. The experiment is classed as cell-based, human. The note with it: 1 hour treatment; for minimal effective concentration: Homo sapiens, PC-3, 1 h, read-out: EB1 pLAC (converted). Put shortly:
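Readout is loss of Eb1 plus-end foci, scored by immunofluorescence microscopy, in PC3 cells after 1 h compound treatment at 37 °C with 0.6% final DMSO. LAC is defined as the lowest concentration leaving at least 50% of cells without Eb1 foci.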

Turning to `CCc1cc2ccc(C(C#N)(CC)Cc3cccc(C#N)c3)cc2[nH]c1=O` (stereo not drawn) [Compound 265], in the experiment on PC-3 cells, the IC50 is 1 µM. In the experiment on PC3 cells, the minimal effective concentration was 1 µM.
Regarding `CCc1cc2ccc(C(C)(C#N)Cc3cc(F)cc(C#N)c3)cc2[nH]c1=O` (stereo not drawn) [Compound 266], the IC50 in the experiment on PC-3 cells was 0.398 µM. Also, the minimal effective concentration in the experiment on PC3 cells is 0.316 µM.
As for `CCc1cc2ccc(C(C#N)(CC)Cc3cccc(F)c3)cc2[nH]c1=O` (stereo not drawn) [Compound 270], in the experiment with PC-3 cells, the IC50 was 3.16 µM. The minimal effective concentration in the experiment on PC3 cells was 3.16 µM.
As to `Cc1cc2ccc(C(C)(C#N)CCCCOc3ccccc3)cc2[nH]c1=O` (stereo not drawn) [Compound 272], the IC50 in the experiment with PC-3 cells was 5.01 µM. In addition, in the experiment on PC3 cells, the minimal effective concentration was 1 µM.
With `Cc1cc2ccc(C(C)(C#N)Cc3cc(F)cc(F)c3)cc2[nH]c1=O` (stereo not drawn) [Compound 282], the IC50 with PC-3 cells was 1 µM. The minimal effective concentration in the experiment with PC3 cells is 3.16 µM.
As to `CCc1cc2ccc(C(C)(C#N)Cc3cc(C)cc(Br)c3)cc2[nH]c1=O` (stereo not drawn) [Compound 284], in the experiment with PC-3 cells, the IC50 was 0.2 µM. For the same compound, the minimal effective concentration with PC3 cells was 0.316 µM.
As to `CCc1cc2ccc(C(C#N)(CC)Cc3cccc(OC)c3)cc2[nH]c1=O` (stereo not drawn) [Compound 287], the IC50 in the experiment with PC-3 cells was 1.26 µM. Besides, the minimal effective concentration in the experiment on PC3 cells is 0.316 µM.
For `CCc1cc2ccc(C(C)(C#N)CN(C)CCc3cn(C)c4ccccc34)cc2[nH]c1=O` (stereo not drawn) [Compound 303], in the experiment on PC-3 cells, the IC50 is 3.16 µM. Further, in the experiment on PC3 cells, the minimal effective concentration was 10 µM.
For `Cc1cc2ccc(C(C)(C#N)Cc3cccc(Oc4ccccn4)c3)cc2[nH]c1=O` (stereo not drawn) [Compound 304], in the experiment with PC-3 cells, the IC50 is 0.398 µM. In the experiment on PC3 cells, the minimal effective concentration is 0.1 µM.
Take `CCOc1cc(N(C)C)nc(CC(C)(C#N)c2ccc3cc(CC)c(=O)[nH]c3c2)n1` (stereo not drawn) [Compound 312]: in the experiment on PC-3 cells, the IC50 was 1 µM. For the same compound, the minimal effective concentration with PC3 cells was 1 µM.
On to `CCOc1cc(C#N)nc(CC(C)(C#N)c2ccc3cc(CC)c(=O)[nH]c3c2)n1` (stereo not drawn) [Compound 315], for which, in the experiment with PC-3 cells, the IC50 is 1.26 µM. Besides, the minimal effective concentration in the experiment on PC3 cells is 1 µM.
Turning to `CCc1cc2ccc(C(C#N)(CC)Cc3nc(C#N)cc(OC)n3)cc2[nH]c1=O` (stereo not drawn) [Compound 316], the IC50 with PC-3 cells is 1.26 µM. The minimal effective concentration with PC3 cells is 3.16 µM.
For `CCc1cc2ccc(C(C#N)(CC)Cc3nc(OC)cc(OC)n3)cc2[nH]c1=O` (stereo not drawn) [Compound 321], the IC50 in the experiment with PC-3 cells was 0.398 µM. For the same compound, the minimal effective concentration with PC3 cells is 0.316 µM.
With `CCc1cc2ccc(C(C)(C#N)Cc3ccnc(C#N)c3)cc2[nH]c1=O` (stereo not drawn) [Compound 324], the IC50 in the experiment with PC-3 cells was 10 µM. Besides, the minimal effective concentration in the experiment with PC3 cells was 1 µM.
Consider `CCc1cc2ccc(C(C)(C#N)Cc3cc(C)nc(Cl)c3)cc2[nH]c1=O` (stereo not drawn) [Compound 326], for which, in the experiment on PC-3 cells, the IC50 was 1 µM. Besides, the minimal effective concentration in the experiment with PC3 cells was 3.16 µM.
Turning to `CCc1cc2ccc(C(C)(C#N)Cc3cccc(F)n3)cc2[nH]c1=O` (stereo not drawn) [Compound 331], the IC50 with PC-3 cells was 1.58 µM. Moreover, the minimal effective concentration in the experiment on PC3 cells is 0.1 µM.
As for `CCc1cc2ccc([C@](C)(C#N)Cc3cc(F)cc(F)c3)cc2[nH]c1=O` [Compound 333], in the experiment on PC-3 cells, the IC50 was 10 µM. In addition, the minimal effective concentration in the experiment on PC3 cells was 10 µM.
For `CCc1cc2ccc(C(C)(C#N)Cc3ccc(C(F)(F)F)nc3C)cc2[nH]c1=O` (stereo not drawn) [Compound 340], the IC50 in the experiment with PC-3 cells was 3.98 µM. In the experiment on PC3 cells, the minimal effective concentration was 10 µM.
As to `CCc1cc2ccc(C(C)(C#N)Cc3ccnc(Cl)c3)cc2[nH]c1=O` (stereo not drawn) [Compound 341], the IC50 with PC-3 cells was 6.31 µM. Further, in the experiment on PC3 cells, the minimal effective concentration was 10 µM.
Turning to `CCc1cc2ccc(C(C#N)(CC)Cc3cccc(C#N)n3)cc2[nH]c1=O` (stereo not drawn) [Compound 342], the IC50 in the experiment on PC-3 cells was 1.26 µM. Moreover, the minimal effective concentration in the experiment on PC3 cells is 3.16 µM.
For `CCc1cc2ccc(C(C)(C#N)CCOc3ccnc(SC)n3)cc2[nH]c1=O` (stereo not drawn) [Compound 348], the IC50 in the experiment on PC-3 cells is 7.94 µM. Moreover, in the experiment with PC3 cells, the minimal effective concentration is 10 µM.
`CCc1cc2ccc(C(C)(C#N)CCOc3ncc(Br)cn3)cc2[nH]c1=O` (stereo not drawn) [Compound 349]: the IC50 with PC-3 cells is 1.58 µM. Also, the minimal effective concentration in the experiment with PC3 cells was 1 µM.
In the case of `CCc1cc2ccc(C(C)(C#N)Cc3nc(C)cc(OC)n3)cc2[nH]c1=O` (stereo not drawn) [Compound 371], in the experiment with PC-3 cells, the IC50 is 0.398 µM. Moreover, in the experiment with PC3 cells, the minimal effective concentration is 0.316 µM.
The matching figures for `CCc1cc2ccc(C(C)(C#N)CN3CCc4ccccc4C3)cc2[nH]c1=O` (stereo not drawn) [Compound 376]: 2.51 µM and 3.16 µM.
On to `CCc1cc2ccc([C@](C)(C#N)C[C@H]3Cc4ccccc4O3)cc2[nH]c1=O` [Compound 397], for which the IC50 in the experiment on PC-3 cells was 10 µM. Moreover, the minimal effective concentration in the experiment on PC3 cells is 3.16 µM.
`CCc1cc2ccc(C(C)(C#N)CC3Oc4ccccc4O3)cc2[nH]c1=O` (stereo not drawn) [Compound 398]: the IC50 in the experiment on PC-3 cells is 7.94 µM. For the same compound, the minimal effective concentration in the experiment with PC3 cells was 3.16 µM.
On to `CCc1cc2ccc(C(C)(C#N)Cc3cc(F)cc(F)c3)cc2[nH]c1=O` (stereo not drawn) [Compound 402], for which the “PC3 antiproliferative activity pIC50” value in the experiment with PC-3 cells (PC3 cells) stood at 6.4. In addition, the “EB1 pLAC” value in the experiment on PC3 cells was found to be 6.5.
